Our source for the LC retention time values is the RepoRT retention time repository.

SMILES strings stand for the structures.

The nature of the series: Thermo Scientific Acclaim RSLC 120 C18, 100 × 2.1 mm, 2.2 µm, 30 °C, 0.2 to 0.48 mL/min, estimated dead time 1.1 min; A: 90% water + 10% methanol + 5 mM ammonium acetate; B: methanol + 5 mM ammonium acetate; gradient (min/%B) 0.1/1 3/39 14/99.9 16/99.9. The following applies: stereoisomer not certain.
`CCCNC(C)C(=O)Nc1ccccc1C` (stereo not drawn): the LC retention time is 7.49 min.

For `CCCCCC(=O)c1ccc(O)cc1O`, the LC retention time was 10.6 min. For the compound `COC(=O)c1ccccc1S(=O)(=O)NC(=O)Nc1nc(C)cc(C)n1`, the LC retention time is 5.03 min.

In the case of `CNC(=N[N+](=O)[O-])NCC1CCOC1` (stereo not drawn), the LC retention time is 3.59 min. Under `COc1ccc(-c2ccccc2)cc1NNC(=O)OC(C)C` stands 9.82 min; under `Cc1c(N(C)CS(=O)(=O)O)c(=O)n(-c2ccccc2)n1C`, 4.89 min. On to `CSc1nnc(C(C)(C)C)c(=O)[nH]1`, for which the LC retention time was 8.04 min. Take `CCc1cccc2c3c([nH]c12)C(CC)(CC(=O)O)OCC3` (stereo not drawn): the LC retention time is 10.5 min. The figure for `CC(C)C(NC(=O)C(CC(=O)O)NC(=O)C(CCCCN)NC(=O)C(N)CCCN=C(N)N)C(=O)NC(Cc1ccc(O)cc1)C(=O)O` (stereo not drawn) is 3.16 min. The figure for `O=[N+]([O-])c1ccc(O)c([N+](=O)[O-])c1` is 4.5 min; for `CNC(=O)ON=C(C)C(C)S(C)=O` (stereo not drawn) it is 3.36 min; for `CC12CCC(=O)C=C1CCC1C2C(O)CC2(C)C(C(=O)CO)CCC12` (stereo not drawn) it is 9.91 min. In the case of `COCCN(C(=O)C(=O)O)c1c(C)cccc1C`, the LC retention time was 6.07 min.

As to `C=CC(=O)NC(C)(C)CS(=O)(=O)O`, the LC retention time was 2.5 min. Under `CCCCC1=NC2(CCCC2)C(=O)N1Cc1ccc(-c2ccccc2-c2nn[nH]n2)cc1` stands 10.1 min. Under `COC=C(C(=O)O)c1ccccc1Oc1cc(Oc2ccccc2C#N)ncn1` stands 7.94 min.

On to `CCN1CCCC1CNC(=O)c1cc(S(N)(=O)=O)ccc1OC` (stereo not drawn), for which the LC retention time was 4.42 min.

In the case of `CCNC(=O)NC(=O)C(C#N)=NOC`, the LC retention time was 5.58 min. As for `COCC(C)N(C(=O)CS(=O)(=O)O)c1c(C)csc1C` (stereo not drawn), the LC retention time was 6.97 min. The figure for `CC1(C)SC2C(NC(=O)C(N)c3ccc(O)cc3)C(=O)N2C1C(=O)O` (stereo not drawn) is 3.68 min; for `COC(=O)C(Cc1ccccc1)NC(=O)C(N)CC(=O)O` (stereo not drawn) it is 4.98 min. For the compound `Cc1cccc(Nc2ccncc2S(=O)(=O)NC(=O)NC(C)C)c1`, the LC retention time is 8.29 min. Under `CC12CCC3C(CC(O)C4=CC(=O)CCC43C)C1CCC2=O` (stereo not drawn) stands 6.99 min; under `CS(=O)(=O)Nc1ccc([N+](=O)[O-])cc1Oc1ccccc1`, 8.24 min; under `CCCCNc1cc(C(=O)O)cc(S(N)(=O)=O)c1Oc1ccccc1`, 6.73 min. Under `CC(C)(C)c1n[nH]c(=O)n(N)c1=O` stands 6.67 min; under `Cc1cnc(NC(=O)C2=C(O)c3ccccc3S(=O)(=O)N2C)s1`, 6.41 min; under `NCC(O)c1ccc(O)cc1` (stereo not drawn), 1.96 min. On to `COP(=S)(OC)Oc1ccc(S(N)(=O)=O)cc1`, for which the LC retention time is 6.16 min. For `CCCCOc1cc(C(=O)NCCN(CC)CC)c2ccccc2n1`, the LC retention time was 11.6 min. Under `Cc1cc(C)n(-c2nc3ccccc3[nH]2)n1` stands 8.22 min; under `CC(C)(C)c1cc(C(C)(C)C)c(O)c(C(C)(C)C)c1`, 14.6 min; under `NC(=O)c1ccccc1O`, 4.83 min. The figure for `CCCC(C)C1(CC)C(=O)NC(=O)NC1=O` (stereo not drawn) is 7.92 min. In the case of `CC(C(=O)O)c1cccc(C(=O)c2ccccc2)c1` (stereo not drawn), the LC retention time was 6.77 min. With `COc1cccc(C(=O)NN(C(=O)c2cc(C)cc(C)c2)C(C)(C)C)c1C`, the LC retention time was 9.55 min. The figure for `CCOC(=O)C1=CC(OC(CC)CC)C(NC(C)=O)C(N)C1` (stereo not drawn) is 8.79 min. Under `O=c1[nH]c2c(c(=O)n1C1CCCCC1)CCC2` stands 8.23 min.

As to `O=C1NC(=O)C(c2ccccc2)(c2ccccc2)N1`, the LC retention time was 8.26 min. Regarding `O=C(O)C(c1ccccc1)C1CCCCN1` (stereo not drawn), the LC retention time is 5.27 min. Under `CC12CCC3C(CCC4=C(O)C(=O)CCC43C)C1CCC2=O` (stereo not drawn) stands 6.61 min; under `CC1CCCCC1NC(=O)Nc1ccccc1` (stereo not drawn), 9.15 min. On to `CCCc1nn(C)c2c(=O)[nH]c(-c3cc(S(=O)(=O)N4CCN(C)CC4)ccc3OCC)nc12`, for which the LC retention time is 9.5 min. Turning to `COC(=O)NC(=S)Nc1ccccc1NC(=S)NC(=O)OC`, the LC retention time is 6.88 min. `Cc1nnc(-c2ccccc2)c(=O)n1N`: the LC retention time was 5.22 min.

With `Cc1ccc(C)c(OCCCC(C)(C)C(=O)O)c1`, the LC retention time is 10.9 min.

Regarding `O=C(c1ccc(OCCN2CCCCC2)cc1)c1c(-c2ccc(O)cc2)sc2cc(O)ccc12`, the LC retention time was 8.86 min. Under `Cc1cccc(C)c1N(Cn1cccn1)C(=O)CS(=O)(=O)O` stands 6.02 min.

With `CC(C)CC(C)Nc1ccc(Nc2ccccc2)cc1` (stereo not drawn), the LC retention time was 11.8 min. The figure for `CC(CCC(=O)O)C1CCC2C3C(O)CC4CC(O)CCC4(C)C3CCC12C` (stereo not drawn) is 11.1 min; for `COC(=O)Nc1nc2ccccc2[nH]1` it is 5.8 min.

Turning to `CCNP(=S)(OC)OC(C)=CC(=O)OC(C)C` (stereo not drawn), the LC retention time is 9.75 min. On to `CCCCCc1cc(O)c2c(c1)OC(C)(C)C1CCC(C(=O)O)=CC21` (stereo not drawn), for which the LC retention time was 12 min. Consider `CCCC(CCC)C(=O)O`, for which the LC retention time is 7.04 min. With `CNC(=O)Oc1cccc2c1OC(C)(C)C2O` (stereo not drawn), the LC retention time is 5.09 min. Under `CCOP(=O)(NC(C)C)Oc1ccc(S(C)(=O)=O)c(C)c1` (stereo not drawn) stands 7.17 min; under `CC(C)c1ccc(NC(N)=O)cc1`, 8.81 min. As for `CNC(=O)Nc1nc2ccccc2s1`, the LC retention time was 7.1 min. In the case of `CCC1(O)C(=O)OCc2c1cc1n(c2=O)Cc2cc3c(CN(C)C)c(O)ccc3nc2-1` (stereo not drawn), the LC retention time was 5.61 min. Under `CCC(CC)OC1C=C(C(=O)O)CC(N)C1NC(C)=O` (stereo not drawn) stands 4.92 min; under `CSC1=NC(C)(c2ccccc2)C(=O)N1Nc1ccccc1` (stereo not drawn), 9.18 min.

As for `CC1CC(=O)CC2CCC3C4CCC(O)C4(C)CCC3C12C` (stereo not drawn), the LC retention time is 14.4 min.

As to `CC12CCC3c4cc(O)c(O)cc4CCC3C1CCC2=O` (stereo not drawn), the LC retention time was 9.74 min. The figure for `Cc1occc1C(=O)Nc1ccccc1` is 7.54 min; for `CCCCCc1cc(O)c2c(c1)OC(C)(C)C1CCC(CO)=CC21` (stereo not drawn) it is 12.3 min; for `CN(C)C(=O)Nc1ccccc1` it is 5.11 min. Under `On1nnc2ccccc21` stands 3.69 min; under `COc1cc(NS(=O)(=O)c2ccc(NC(C)=O)cc2)nc(OC)n1`, 5.09 min; under `CCCCc1c(C)nc(NCC)[nH]c1=O`, 8.39 min.

For the compound `Cc1ccc(NS(=O)(=O)N(C)C)cc1`, the LC retention time was 7.23 min. For the compound `CCCCC(=O)N(Cc1ccc(-c2ccccc2-c2nn[nH]n2)cc1)C(C(=O)O)C(C)C` (stereo not drawn), the LC retention time is 8.17 min.

As for `S=c1nc[nH]c2nc[nH]c12`, the LC retention time is 2.62 min. Regarding `Nc1nc2ccccc2[nH]1`, the LC retention time was 5.11 min.
